Test results as given in patent US6943158B2, “Diazinopyrimidines” (Roche Palo Alto LLC, priority 2002, dated 2005).

Tests used:
[1] = target: T1, p38 MAP kinase (Homo sapiens, UniProt Q16539); test: in vitro p38 MAP kinase inhibition assay (transfer of γ-33P from ATP to Myelin Basic Protein); format: biochemical; conditions: phosphorylated recombinant p38 MAP kinase, MBP substrate, γ-33P-ATP; read-out: p-38 inhibitory activity, IC50
T1 construct: made in house; host or cells: E. coli (co-expressed with SEK-1 and MEKK to phosphorylate it)
Experimental: This example illustrates an in vitro assay procedure for determining p38 MAP kinase inhibition by a compound of Formula I.
The p-38 MAP kinase inhibitory activity of compounds of this invention in vitro is determined by measuring the transfer of the γ-phosphate from γ-^33P-ATP by p-38 kinase to Myelin Basic Protein (MBP), using the a minor modification of the method described in Ahn, N. G.; et al. J. Biol. Chem. Vol. 266(7), 4220-4227, (1991).
The phosphorylated form of the recombinant p38 MAP kinase was expressed with SEK-1 and MEKK in E. Coli and then purified by affinity chromatography using a Nickel column.
The phosphorylated p38 MAP kinase is diluted in kinase buffer (20 mM 3-(N-morpholino)propanesulfonic acid, pH 7.2, 25 mM β-glycerol phosphate, 5 mM ethylene glycol-bis(beta-aminoethyl ether)-N,N,N′,N′-tetraacetic acid, 1 mM sodium vanadate, 1 mM dithiothreitol, 40 mM magnesium chloride). Test compound dissolved in DMSO or only DMSO (control) is added and the samples are incubated for 10 min at 30° C. The kinase reaction is initiated by the addition of a substrate cocktail containing MBP and γ-^33P-ATP. […] The phosphorylated MBP is then separated from the residual γ-^33P-ATP using a phosphocellulose membrane (Millipore, Bedford, Mass.) and quantitated using a scintillation counter (Packard, Meriden, Conn.). […]

[2] = target: T2, FGFR; test: in vitro FGFR kinase inhibition HTRF assay; format: biochemical; conditions: recombinant GST-tagged FGFR, 10 μM ATP, 37° C. 30 minutes
T2 construct: fused on or other part: GST tag
Experimental: To determine inhibition of FGFR activity, kinase assays were conducted using an HTRF (Homogeneous Time Resolved Fluorescence) assay. This assay is described in A. J. Kolb et. al., Drug Discovery Today, 1998, 3(7), p 333.
Prior to kinase reaction, recombinant GST-tagged FGFR enzyme was activated at room temperature for 1 hour in the following activation buffer: 100 mM HEPES, pH 7.4, 50 mM NaCl, 20 mM MgCl2, and 4 mM ATP.
Kinase activity assays were performed in 96-well polypropylene plates (Falcon) with a total volume of 90 μL in each well. Each well contained 1 μM substrate (Biotin-EEEEYFELV), 1.5 μM activated FGFR, and a test compound with one of 8 assay concentrations ranging from 100 μM to […] (1:5 serial dilution). The kinase activity assay was done in the presence of 100 mM HEPES, pH 7.4, 1 mM DTT, 0.1 mM Na2VO4, 0.4 mM MgCl2, 0.4 mM MnCl2, 50 mM NaCl (from KDR stock solution), 1% DMSO (from compound), 10 μM ATP (Km=8.5 μM for FGFR) and 0.02% BSA. The reaction was incubated at 37° C. for 30 minutes. To stop the FGFR reaction, 72 μL of reaction mixture was transferred into a STOP plate containing 18 μL of revelation buffer (20 mM EDTA, 50 mM HEPES, pH 7.4, 0.02% BSA, 10 nM Eu-labelled anti-p Y antibody (final conc. 2 nM), and 100 nM streptavidin (final conc. 20 nM)). After mixing, 35 μL of solution was transferred into duplicate wells of a 384-well black plate (Costar), and read at 615/665 nm on a Wallac Victor 5 reader.
Compound IC50 values were determined from duplicate sets of data, and calculated by using Excel and fitting data to equation Y=[(a−b)/{1+(X/c)^d]+b, where a and b are enzyme activity in the presence of no test inhibitor compound and an infinite amount of inhibitor test compound, respectively, c is the IC50 and d is the hill constant of the compound response. The IC50 value is the concentration of test compound that reduces by 50% the enzyme activity under the test conditions described. Compounds of the invention were active in the assay. Selected IC50 values are shown below.

T1 sequence (Q16539 whole entry): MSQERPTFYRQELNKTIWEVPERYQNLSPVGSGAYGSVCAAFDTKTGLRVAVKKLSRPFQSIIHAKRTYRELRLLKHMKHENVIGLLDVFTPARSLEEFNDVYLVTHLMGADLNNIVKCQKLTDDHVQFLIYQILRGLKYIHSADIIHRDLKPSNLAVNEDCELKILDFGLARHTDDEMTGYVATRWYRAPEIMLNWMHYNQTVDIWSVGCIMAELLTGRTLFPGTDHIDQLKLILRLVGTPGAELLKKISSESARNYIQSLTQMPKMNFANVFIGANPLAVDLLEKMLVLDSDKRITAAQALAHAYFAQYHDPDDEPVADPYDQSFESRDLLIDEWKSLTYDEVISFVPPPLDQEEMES

| Structure (SMILES) | IC50 [1] [nM] | melting point [°C] | IC50 [2] [nM] |
| --- | --- | --- | --- |
| CN1N=C(c2ccccc2Cl)Oc2cnc(NC3CCOCC3)nc21 [compound 1, 2-methyl-4-(2-chlorophenyl)-6-(tetrahydropyranyl-4-amino)-4H-1,3,4-pyrimido[4,5-e]oxadiazine] | 189 | 171 to 172.1 |  |
| CN1N=C(c2c(Cl)cccc2Cl)Oc2cnc(Nc3ccc(N4CCOCC4)cc3)nc21 [compound 29, [3-(2,6-dichlorophenyl)-1-methyl-1H-pyrimido[4,5-e][1,3,4]oxadiazin-7-yl]-(4-morpholin-4-yl-phenyl)amine] |  | 192.2 to 200.3 |  |
| CN1N=C(c2c(Cl)cccc2Cl)Oc2cnc(Nc3ccccc3)nc21 [compound 5, [3-(2,6-dichlorophenyl)-1-methyl-1H-pyrimido[4,5-e][1,3,4]oxadiazin-7-yl]-phenyl-amine] |  |  | 180 |
| CN1N=C(c2c(Cl)cccc2Cl)Oc2cnc(Nc3cccc(Cl)c3)nc21 [compound 7, [3-(2,6-Dichloro-phenyl)-1-methyl-1H-pyrimido[4,5-e][1,3,4]oxadiazin-7-yl]-(3-chloro-phenyl)-amine] |  |  | 320 |
| CN1N=C(c2c(Cl)cccc2Cl)Oc2cnc(Nc3ccc(F)cc3)nc21 [compound 6, [3-(2,6-Dichloro-phenyl)-1-methyl-1H-pyrimido[4,5-e][1,3,4]oxadiazin-7-yl]-(4-fluoro-phenyl)-amine] |  |  | 240 |
| CN1N=C(c2ccccc2F)Oc2cnc(NC3CCOCC3)nc21 [compound 2] | 2200 |  |  |
